Structures are written as SMILES.

The IC50 is the concentration at which inhibition is half-maximal. High values mean a need for much substance, low ones inhibition by little substance.

For assay [1], the target named is T1, EED protein (His6-tagged full-length) binding to H3K27me3 polypeptide (Homo sapiens, UniProt O75530).
T1 construct: His6-tagged full-length EED protein (441 amino acids)
The assay can be described thus: AlphaScreen evaluation of blocking the binding of EED to H3K27Me3. As to conditions: EED 60 nM, biotinylated H3K27me3 75 nM, 30 minutes incubation. As to the method: Firstly, compound solutions of different concentration gradients were prepared. Compound powder was dissolved in DMSO to prepare a mother liquor. 1.5 μl of the mother liquor of the compound was taken and added into 198.5 μl of a reaction buffer (25 mM HEPES (pH 8.0), 50 mM NaCl, 0.015% Tween 20, 0.5% BSA). The mixture was mixed uniformly. Then a 3-fold series dilution was carried out with the above-mentioned buffer containing 0.75% DMSO. 9 different test concentrations were provided for one same compound. 5 μL of compounds of different concentration gradients were taken and added into the ProxiPlate-384 Plus, White detection plate (PerkinElmer, 6008280) and two replicates in parallel were provided for each concentration gradient.
Secondly, a reaction for blocking the binding was carried out. The above-mentioned buffer was used to dilute His6-tagged full-length EED protein (441 amino acids) to 60 nM and biotinylated polypeptide fragment H3K27me3 (amino acids at positions 19-33) (Biotinylated-H3K27me3) to 75 nM. 5 μl of the polypeptide fragment at the concentration of 75 nM and 5 µl of the protein at the concentration of 60 nM were transferred to the detection wells containing the compound, respectively. The detection plate was sealed with the film and incubation was carried out at room temperature for 30 minutes.
Finally, the detection was carried out with the AlphaScreen method. Prior use, nickel chelate receptor beads and streptavidin donor beads (at the ratio of 1:1, Perkin Elmer, product number 6760619M) were mixed with the above-mentioned reaction buffer. Then 5 μl of the above-mentioned pre-mixed detection solution was added to each of the detection wells. The donor beads and receptor beads were both at a final concentration of 5 μg/mL. The detection plate was covered and sealed with tinfoil and placed in the dark at room temperature for 1 hour. The signal was read using the AlphaScreen detector on the Spectra max i3. AlphaScreen signals were standardlized based on the readings obtained from positive controls (maximum signal controls) and negative controls (minimum signal controls) to give the inhibition rates for compounds at different concentrations, and afterwards non-linear regression analysis was carried out using GraphPad Prism 5, inhibition curves were made based on the Dose-Response equation of Y=Bottom+(Top−Bottom)/(1+10^((Log IC50−X)*HillSlope)) and the IC50 values of each compound were obtained. […]
For orientation: In Alpha technology, singlet oxygen from a donor bead excites a nearby acceptor bead.

Assay [2] has as its system trimethylation level of histone H3K27 in G401 cells. The assay can be described thus: ELISA (H3K27 trimethylation) analysis in G401 cells. It is filed as cell-based. As to conditions: Homo sapiens, G-401, 72 hours, H3K27me3 standardized to H3. In a few lines: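 Cells exposed 72 h to 10-point 3-fold dilutions, top 10 μM, 0.5% final DMSO. Acid-extracted histones assayed by ELISA (ECL) for H3K27me3, normalized to total H3 and to DMSO control; IC50 from dose-response fit.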
(ELISA stands for enzyme-linked immunosorbent assay.)

For the next assay, the system named is KARPAS-422 cells. The assay can be described thus: Cell proliferation analysis, KARPAS-422, 13 days, CellTiter-Glo. The assay is classed as cell-based. As to conditions: Homo sapiens, 312 h. In outline: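 KARPAS-422 cells were treated with PRC2 inhibitors over 9 three-fold dilutions from 10 μM top (0.5% DMSO, duplicates) in RPMI-1640 with 15% FBS at 37 °C. Every 3–4 days cells were counted and reseeded at 1×10^4/well with fresh compound. Viability was read by CellTiter-Glo luminescence on day 13.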
A general note: Cellular ATP, detected with luciferase, serves as a proxy for viable cell number.

T1 sequence (O75530 whole entry): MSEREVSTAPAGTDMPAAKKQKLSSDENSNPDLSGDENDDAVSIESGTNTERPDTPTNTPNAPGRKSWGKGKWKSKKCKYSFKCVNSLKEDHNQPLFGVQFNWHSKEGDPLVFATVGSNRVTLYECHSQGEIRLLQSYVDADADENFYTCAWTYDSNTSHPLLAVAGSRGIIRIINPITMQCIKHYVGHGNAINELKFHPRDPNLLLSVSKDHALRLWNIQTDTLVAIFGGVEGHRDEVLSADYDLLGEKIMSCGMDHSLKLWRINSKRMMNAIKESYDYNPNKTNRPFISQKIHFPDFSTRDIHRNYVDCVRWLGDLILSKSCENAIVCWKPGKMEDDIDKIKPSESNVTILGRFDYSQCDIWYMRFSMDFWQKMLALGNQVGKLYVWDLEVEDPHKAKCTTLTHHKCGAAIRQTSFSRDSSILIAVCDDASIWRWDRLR

As to `CC(=O)c1c(C)nc2c(-c3cnc(NCc4c(F)ccc5c4CCO5)n4cnnc34)cc(F)cn12` [1-(6-fluoro-8-(5-(((5-fluoro-2,3-dihydrobenzofuran-4-yl)methyl)amino)-[1,2,4]triazolo[4,3-c]pyrimidin-8-yl)-2-methylimidazo[1,2-a]pyridin-3-yl)ethan-1-one], the half-maximal inhibitory concentration (IC50) came out at 0.016 µM in assay [1], 0.0015 µM in assay [2] and 0.0011 µM with KARPAS-422 cells.
With `CC(=O)c1c(C)nc2c(-c3cnc(NCc4c(F)ccc5c4CCO5)n4cnnc34)cccn12` [1-(8-(5-(((5-fluoro-2,3-dihydrobenzofuran-4-yl)methyl)amino)-[1,2,4]triazolo[4,3-c]pyrimidin-8-yl)-2-methylimidazo[1,2-a]pyridin-3-yl)ethan-1-one], the half-inhibitory concentration (IC50) in assay [1] came to 0.0048 µM; in assay [2], 0.0025 µM; in the assay on KARPAS-422 cells it was 0.0016 µM.
On to `Cc1ccc(-c2cnc(NCc3c(F)ccc4c3CCO4)n3cnnc23)c2ncc(CC(=O)N(C)C)n12` [2-(8-(5-(((5-fluoro-2,3-dihydrobenzofuran-4-yl)methyl)amino)-[1,2,4]triazolo[4,3-c]pyrimidin-8-yl)-5-methylimidazo[1,2-a]pyridin-3-yl)-N,N-dimethylacetamide], for which the IC50 in assay [1] is 0.0114 µM; in assay [2] it was 0.0016 µM; with KARPAS-422 cells it was 0.0061 µM.
On to `CCOC(=O)c1c(C(F)(F)F)nc2c(-c3cnc(NCc4c(F)ccc5c4CCO5)n4cnnc34)cccn12` [Ethyl 8-(5-(((5-fluoro-2,3-dihydrobenzofuran-4-yl)methyl)amino)-[1,2,4]triazolo[4,3-c]pyrimidin-8-yl)-2-(trifluoromethyl)imidazo[1,2-a]pyridine-3-carboxylate], for which the results for the IC50 in assay [1] and in assay [2] were 0.029 µM and 0.202 µM, respectively.
Turning to `CCOC(=O)c1c(O)nc2c(-c3cnc(NCc4c(F)ccc5c4CCO5)n4cnnc34)cccn12` [Ethyl 8-(5-(((5-fluoro-2,3-dihydrobenzofuran-4-yl)methyl)amino)-[1,2,4]triazolo[4,3-c]pyrimidin-8-yl)-2-hydroxyimidazo[1,2-a]pyridine-3-carboxylate], the concentration for half-maximal inhibition (IC50) in assay [1] amounted to 0.0221 µM; in assay [2], 0.068 µM.
Consider `Cc1ccc(-c2cnc(NCc3c(F)ccc4c3CCO4)n3cnnc23)c2ncc(F)n12` [N-((5-fluoro-2,3-dihydrobenzofuran-4-yl)methyl)-8-(3-fluoro-5-methylimidazo[1,2-a]pyridin-8-yl)-[1,2,4]triazolo[4,3-c]pyrimidin-5-amine], for which the IC50 in assay [1] stood at 0.0058 µM; in assay [2] it was 0.0061 µM.
Take `Fc1ccc2c(c1CNc1ncc(-c3c(C(F)(F)F)ccc4nsnc34)c3nncn13)CCO2` [N-((5-fluoro-2,3-dihydrobenzofuran-4-yl)methyl)-8-(5-(trifluoromethyl)benzo[c][1,2,5]thiadiazol-4-yl)-[1,2,4]triazolo[4,3-c]pyrimidin-5-amine]: the figures for the half-inhibitory concentration (IC50) in assay [1] and in assay [2] were 0.0464 µM and 0.17 µM, respectively.
In the same order, the values of `Cc1cc(-c2cnc(NCc3c(F)ccc4c3CCO4)n3cnnc23)c2nc(C(F)(F)F)cn2c1` [N-((5-fluoro-2,3-dihydrobenzofuran-4-yl)methyl)-8-(6-methyl-2-(trifluoromethyl)imidazo[1,2-a]pyridin-8-yl)-[1,2,4]triazolo[4,3-c]pyrimidin-5-amine] are 0.0157 µM and 0.041 µM.
Consider `Fc1ccc2c(c1CNc1ncc(-c3cnc4nccn4c3)c3nncn13)CCO2` [N-((5-fluoro-2,3-dihydrobenzofuran-4-yl)methyl)-8-(imidazo[1,2-a]pyrimidin-6-yl)-[1,2,4]triazolo[4,3-c]pyrimidin-5-amine], for which the half-maximal inhibitory concentration (IC50) in assay [1] stood at 0.0049 µM; in assay [2] it was 0.0129 µM.
In the case of `Fc1ccc2c(c1CNc1ncc(-c3cccc4cccnc34)c3nncn13)CCO2` [N-((5-fluoro-2,3-dihydrobenzofuran-4-yl)methyl)-8-(quinolin-8-yl)-[1,2,4]triazolo[4,3-c]pyrimidin-5-amine], the concentration for half-maximal inhibition (IC50) in assay [1] was determined as 0.0051 µM; in assay [2], 0.0029 µM.

The values above are taken from patent publication US12583870B2, “Azaheteroaryl compound and application thereof” (SHANGHAI BLUERAY BIOPHARMA CO., LTD., priority 2019, dated 2026).
